Assay results reported in publication PMC3086806, “Mining a Cathepsin Inhibitor Library for New Antiparasitic Drug Leads” (PLoS Neglected Tropical Diseases, 2011).

How the values were obtained:
Assay type in all cases: biochemical
rhodesain = molecular target: T1, rhodesain (Trypanosoma brucei rhodesiense, UniProt Q95PM0); test: Rhodesain protease inhibition assay (Z-Phe-Arg-AMC); details: for Fold more potent inhibition of rhodesain than TbCatB: rhodesain vs TbCatB IC50
T1 construct: made in house
Procedure: (§1) Recombinant cruzain, rhodesain, TbCatB, falcipain-2 and falcipain-3 were expressed as described previously, [39], [40], [41], [42]. Inhibitor stock solutions were prepared in DMSO and screened at 0.1 µM for cruzain and rhodesain, 1 µM for TbCatB and 50 nM for falcipain-3 (0.5% DMSO in assay). […] Protease inhibition assays for cruzain and rhodesain were carried out in 96 well plate format as described previously. Cruzain (4 nM), rhodesain (4 nM) or TbCatB (258 nM) was incubated with test compound in 100 mM sodium acetate, pH 5.5, containing 5 mM DTT and 0.01% Triton X-100 (buffer A), for 5 min at room temperature (the higher concentration of TbCatB was required due to its lower intrinsic activity against the fluorogenic substrate). Then buffer A containing Z-Phe-Arg-AMC (Bachem) was added to enzyme-compound mixture to give 10 µM substrate in a final assay volume of 200 µL. The rate of free AMC release was measured at excitation and emission wavelengths of 355 and 460 nm, respectively, with a microtiter plate spectrofluorimeter (SpectraMax M5, Molecular Devices) for 3 min. Percentage inhibition of test compound was calculated relative to the DMSO control (0% inhibition control). IC50 values were determined with Prism 4 software (GraphPad, San Diego, CA) using sigmoidal dose-response variable slope model.

TbCatB = molecular target: T2, TbCatB (Trypanosoma brucei, UniProt Q6R7Z5); test: TbCatB protease inhibition assay (Z-Phe-Arg-AMC)
T2 construct: made in house
T2 sequence (Q6R7Z5 23-340): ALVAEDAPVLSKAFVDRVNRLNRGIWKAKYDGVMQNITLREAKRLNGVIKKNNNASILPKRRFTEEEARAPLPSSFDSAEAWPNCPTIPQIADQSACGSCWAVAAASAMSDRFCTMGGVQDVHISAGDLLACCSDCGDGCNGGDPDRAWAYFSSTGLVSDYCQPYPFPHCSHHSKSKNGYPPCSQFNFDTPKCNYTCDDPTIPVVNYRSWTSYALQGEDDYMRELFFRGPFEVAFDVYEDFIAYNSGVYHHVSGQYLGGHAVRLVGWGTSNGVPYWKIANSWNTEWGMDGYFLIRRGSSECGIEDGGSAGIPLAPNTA
Procedure: as §1

falcipain-3 = molecular target: T3, falcipain-3 (Plasmodium falciparum, UniProt Q8IIL0); test: Falcipain-3 protease inhibition assay (Z-Leu-Arg-AMC); details: read-out: IC50 falcipain-3
T3 construct: made in house
T3 sequence (Q8IIL0 243-492): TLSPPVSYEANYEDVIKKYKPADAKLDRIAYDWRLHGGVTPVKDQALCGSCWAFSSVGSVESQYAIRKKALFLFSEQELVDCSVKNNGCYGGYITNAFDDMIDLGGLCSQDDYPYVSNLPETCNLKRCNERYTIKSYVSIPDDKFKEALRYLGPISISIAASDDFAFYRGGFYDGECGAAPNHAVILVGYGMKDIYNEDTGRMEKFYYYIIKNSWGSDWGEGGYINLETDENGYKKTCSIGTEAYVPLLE
Procedure: as §1
(§2) Protease inhibition assays for falcipain-2 and falcipain-3 were carried out in 96 well plate format as described previously, [43] with modification for end-point readout. Falcipain-2 (21 nM) or falcipain-3 (78 nM) was incubated with test compound for 10 min at room temperature in 200 mM sodium acetate, pH 6, 10 mM DTT and 3.6% glycerol and 0.01% Triton X-100 (buffer B). Then buffer B containing Z-Leu-Arg-AMC (Bachem) was added to the enzyme-compound mixture to give 25 µM substrate in a final assay volume of 200 µL. After 15 min, 50 µL of 5 M acetic acid was added to each well to stop the reaction. End-point fluorescence was read in a spectrofluorimeter as above. The 0% inhibition control wells contained DMSO while 100% inhibition control wells contained 50 µM E-64 (Sigma). Percentage inhibition of test compound was calculated relative to the controls and IC50 curve fitting was performed with Prism 4 software as above.

falcipain-2 = molecular target: T4, falcipain-2 (Plasmodium falciparum, UniProt Q8I6U4); test: Falcipain-2 protease inhibition assay (Z-Leu-Arg-AMC)
T4 construct: made in house
T4 sequence (Q8I6U4 244-484): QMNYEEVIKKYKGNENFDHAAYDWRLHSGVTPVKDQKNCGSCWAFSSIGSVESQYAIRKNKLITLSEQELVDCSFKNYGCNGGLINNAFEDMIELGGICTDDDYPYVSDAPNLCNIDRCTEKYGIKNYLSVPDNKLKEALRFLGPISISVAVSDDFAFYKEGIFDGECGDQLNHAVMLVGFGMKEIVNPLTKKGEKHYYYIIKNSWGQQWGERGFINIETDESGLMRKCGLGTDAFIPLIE
Procedure: as §1, §2

T1 sequence (Q95PM0 entry or part of it): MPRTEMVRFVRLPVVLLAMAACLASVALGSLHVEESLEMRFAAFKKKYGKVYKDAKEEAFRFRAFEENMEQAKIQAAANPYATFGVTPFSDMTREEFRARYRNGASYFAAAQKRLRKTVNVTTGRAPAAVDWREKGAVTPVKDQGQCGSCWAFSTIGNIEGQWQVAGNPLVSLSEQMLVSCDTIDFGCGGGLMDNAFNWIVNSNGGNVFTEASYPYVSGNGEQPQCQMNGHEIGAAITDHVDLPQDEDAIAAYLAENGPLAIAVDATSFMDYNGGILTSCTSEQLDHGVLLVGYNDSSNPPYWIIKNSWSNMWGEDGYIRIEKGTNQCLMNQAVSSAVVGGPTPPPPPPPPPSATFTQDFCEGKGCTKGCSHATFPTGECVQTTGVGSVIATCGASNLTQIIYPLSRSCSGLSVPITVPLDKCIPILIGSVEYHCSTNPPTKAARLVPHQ

| Compound | IC50 (rhodesain) [nM] | Fold more potent inhibition of rhodesain than TbCatB (rhodesain) [fold] | IC50 (TbCatB) [nM] | IC50 (falcipain-3) [nM] | IC50 (falcipain-2) [nM] |
| --- | --- | --- | --- | --- | --- |
| CCCCC(NC(=O)C(CC(C)C)NC(=O)N1CCOCC1)C(=O)c1nc2ccccc2o1 (stereo not shown) [Compound 19a] | 1 | ~1000 | 1000 | 8.3 | 2.1 |
| CCCCC(NC(=O)C(Cc1ccccc1)NC(=O)N1CCOCC1)C(=O)c1nc2ccccc2o1 (stereo not shown) [Compound 19b] | 1 | ~1000 | 600 | 4.9 | 4.4 |
